Reference: article PMC10106425 (ACS infectious diseases, 2023)
Where two headings read alike, the source gives them in different places.

Legend:
HepG2 cells = assay: Cytotoxicity assay; type: cell-based, human; details: for EC50: read-out: HepG2 EC50
human PLK1 = details: read-out: PLK1 IC50, from prior publication or from Selleck Chemicals ref 15, 16; cited from earlier work
[1] = test system: Plasmodium falciparum strain Dd2; assay: SYBR Green I proliferation assay, asynchronous blood stage, Dd2; type: cell-based; details: for EC50: read-out: Pf Dd2 EC50
P. falciparum Dd2 = assay: Flow-cytometry rate of killing assay; type: cell-based, Plasmodium falciparum; details: 10 × EC50
[2] = test system: Plasmodium falciparum strain 3D7; assay: SYBR Green I proliferation assay, asynchronous blood stage, 3D7
PfARK2 [3] = assay: Radioactive kinase assay; type: biochemical, P. falciparum; details: highest concentration tested 2 μM
PfARK2 [4] = assay: ADP-Glo kinase assay; type: biochemical, P. falciparum; details: up to 5 μM
GSK3 = GSK3 (Plasmodium falciparum, UniProt O77344); assay: KinaseSeeker split-luciferase competitive binding assay; set-up: species or system P. falciparum; details: read-out: % activity remaining at 2.5 μM, GSK3
Pf NEK1 = assay: as above; set-up: species or system P. falciparum
PfARK3 = assay: as above; set-up: species or system P. falciparum
[5] = test system: synchronized Dd2 parasites; assay: Stage-specific assay; type: cell-based, Plasmodium falciparum; details: 5 × EC50 applied later in the ring stage (18 HPI)
PK6 = PK6 (Plasmodium falciparum, UniProt O77239); assay: KinaseSeeker split-luciferase competitive binding assay; set-up: species or system P. falciparum; details: read-out: % activity remaining at 2.5 μM, PK6
PKB = PKB (Plasmodium falciparum, UniProt Q8I4W3); assay: as above; set-up: species or system P. falciparum; details: read-out: % activity remaining at 2.5 μM, PKB
CDPK5 = CDPK5 (Plasmodium falciparum, UniProt A0A5K1K8H0); assay: as above; set-up: species or system P. falciparum; details: read-out: % activity remaining at 2.5 μM, CDPK5
PK9 = assay: as above; set-up: species or system P. falciparum
PfARK1 = assay: as above; set-up: species or system P. falciparum
PK5 = PK5 (Plasmodium falciparum, UniProt P61075); assay: as above; set-up: species or system P. falciparum; details: read-out: % activity remaining at 2.5 μM, PK5
Pf NEK3 (PF3D7_1201600) = Pf NEK3 (PF3D7_1201600) (Plasmodium falciparum, UniProt Q8I629); assay: biochemical; type: binding; details: for remaining activity at 2.5 µM: read-out: % activity remaining at 2.5 μM, NEK3
CDPK2 = CDPK2 (Plasmodium falciparum, UniProt Q8ICR0); assay: KinaseSeeker split-luciferase competitive binding assay; set-up: species or system P. falciparum; details: read-out: % activity remaining at 2.5 μM, CDPK2
[6] = 48 h, average ± SEM, at least three biological replicates
[7] = 72 h, average ± SEM, at least three biological replicates
[8] = Plasmodium falciparum, DD2, 72 h
[9] = 3D7, 72 h, read-out: Pf 3D7 EC50

Sequence of CDPK5 (A0A5K1K8H0 whole entry): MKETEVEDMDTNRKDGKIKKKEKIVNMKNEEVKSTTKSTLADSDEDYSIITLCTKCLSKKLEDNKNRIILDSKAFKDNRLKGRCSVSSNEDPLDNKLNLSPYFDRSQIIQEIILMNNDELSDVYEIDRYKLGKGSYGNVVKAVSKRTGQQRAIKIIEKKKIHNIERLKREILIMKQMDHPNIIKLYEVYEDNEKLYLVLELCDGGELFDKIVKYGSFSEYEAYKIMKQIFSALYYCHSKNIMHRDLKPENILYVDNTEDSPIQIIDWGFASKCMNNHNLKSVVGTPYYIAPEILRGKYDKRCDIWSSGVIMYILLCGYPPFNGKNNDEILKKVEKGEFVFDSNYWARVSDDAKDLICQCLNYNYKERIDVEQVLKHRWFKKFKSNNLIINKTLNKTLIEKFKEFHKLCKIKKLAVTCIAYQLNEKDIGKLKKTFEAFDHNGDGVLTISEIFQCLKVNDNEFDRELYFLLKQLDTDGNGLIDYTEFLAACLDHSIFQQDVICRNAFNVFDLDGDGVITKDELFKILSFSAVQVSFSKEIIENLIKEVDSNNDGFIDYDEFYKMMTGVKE
Sequence of PK5 (P61075 whole entry): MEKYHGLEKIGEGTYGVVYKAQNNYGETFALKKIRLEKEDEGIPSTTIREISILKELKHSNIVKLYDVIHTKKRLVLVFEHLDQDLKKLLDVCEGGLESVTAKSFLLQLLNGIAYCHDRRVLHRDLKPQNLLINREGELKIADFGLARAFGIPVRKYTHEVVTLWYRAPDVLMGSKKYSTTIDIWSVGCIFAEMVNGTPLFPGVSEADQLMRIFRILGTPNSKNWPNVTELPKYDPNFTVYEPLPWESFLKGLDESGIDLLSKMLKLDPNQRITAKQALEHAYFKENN
Sequence of CDPK2 (Q8ICR0 whole entry): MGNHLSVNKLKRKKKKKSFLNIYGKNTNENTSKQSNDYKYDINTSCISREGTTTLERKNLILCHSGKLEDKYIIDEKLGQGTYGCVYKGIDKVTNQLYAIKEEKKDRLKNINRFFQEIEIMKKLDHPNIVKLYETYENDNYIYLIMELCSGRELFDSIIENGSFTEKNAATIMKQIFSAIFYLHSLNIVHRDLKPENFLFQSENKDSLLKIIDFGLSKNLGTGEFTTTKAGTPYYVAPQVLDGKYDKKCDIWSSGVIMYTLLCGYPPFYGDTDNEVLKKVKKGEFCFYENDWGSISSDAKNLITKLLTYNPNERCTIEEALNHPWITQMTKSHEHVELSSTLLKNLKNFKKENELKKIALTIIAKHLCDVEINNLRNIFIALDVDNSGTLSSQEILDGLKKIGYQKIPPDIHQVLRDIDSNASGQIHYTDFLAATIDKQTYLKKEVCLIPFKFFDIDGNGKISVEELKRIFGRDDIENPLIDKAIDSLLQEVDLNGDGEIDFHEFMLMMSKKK

COc1cc2ncn(-c3cc(OCc4ccccc4C(F)(F)F)c(C(N)=O)s3)c2cc1OC [GW843682 (17), GW843682]
EC50 (HepG2 cells; [6]): > 25000 nM
IC50 (human PLK1): 2.2 nM
EC50 [1, 7]: > 5000 nM

SBE 13 [SBE 13 (14)]
Selectivity Index (SI) = HepG2 EC50/Dd2 EC50 (HepG2 cells): >7.0
EC50 (HepG2 cells; [6]): > 25000 nM
IC50 (human PLK1): 0.2 nM
EC50 [1, 7]: 3570 ± 130 nM

CN1CCN(c2ccc(OC(F)(F)F)c(Nc3ncc4c(n3)-c3c(c(C(N)=O)nn3CCO)CC4)c2)CC1 [NMS-P937 (15), NMS-P937]
EC50 (HepG2 cells; [6]): 6010 ± 79 nM
EC50 [1, 7]: > 5000 nM

CC[C@@H]1C(=O)N(C)c2cnc(Nc3ccc(C(=O)NC4CCN(C)CC4)cc3OC)nc2N1C1CCCC1 [BI-2536 (1), BI-2536]
compound incubation required for a full killing effect (P. falciparum Dd2): 24 to 48 h
EC50 (HepG2 cells; Homo sapiens, HepG2, 48 h): 3730 ± 520 nM
EC50 [1, 8]: 178 ± 12 nM
EC50 [2, 9]: 135 ± 35 nM
EC50 ([2]; 3D7, read-out: EC50, 3D7 clone A10): 288 nM
inhibitory effect in PfARK2 (PfARK2 [3]): neither compound displayed inhibitory effects
activity in PfARK2 (PfARK2 [4]): lack of activity

CC[C@@H]1C(=O)N(C)c2cnc(Nc3ccc(C(=O)N[C@H]4CC[C@H](N5CCN(CC6CC6)CC5)CC4)cc3OC)nc2N1C(C)C [BI-6727 (11), BI-6727]
remaining activity at 2.5 µM (GSK3): 100%
% activity remaining at 2.5 μM, NEK1 (Pf NEK1): 93.8%
compound incubation required for a full killing effect (P. falciparum Dd2): 24 to 48 h
% activity remaining at 2.5 μM, ARK3 (PfARK3): 83.6%
DNA replication (YOYO-1 signal) [5]: delayed increase in the YOYO-1 signal at 54 h
remaining activity at 2.5 µM (PK6): 67.3%
remaining activity at 2.5 µM (PKB): 49.3%
Selectivity Index (SI) = HepG2 EC50/Dd2 EC50 (HepG2 cells): 8.0
EC50 (HepG2 cells; Homo sapiens, HepG2, 48 h): 1930 ± 460 nM
remaining activity at 2.5 µM (CDPK5): 100%
% activity remaining at 2.5 μM, PK9 (PK9): 100.0%
IC50 (human PLK1): 0.87 nM
% activity remaining at 2.5 μM, ARK1 (PfARK1): 100.0%
Resistance Index (RI) = Dd2 EC50/3D7 EC50 [1]: 0.81
EC50 [1, 8]: 230 ± 14 nM
remaining activity at 2.5 µM (PK5): 100%
IC50 (Pf NEK3 (PF3D7_1201600)): 130 nM
remaining activity at 2.5 µM (Pf NEK3 (PF3D7_1201600)): 11.1%
remaining activity at 2.5 µM (CDPK2): 100%
EC50 [2, 9]: 284 ± 52 nM

COc1cc(OC)c(/C=C/S(=O)(=O)Cc2ccc(OC)c(NCC(=O)O)c2)c(OC)c1 [ON-01910 (16), ON-01910]
EC50 (HepG2 cells; Homo sapiens, HepG2, 48 h): 11900 nM
EC50 [1, 8]: > 5000 nM

C[C@@H](Oc1cc(-n2cnc3ccc(CN4CCN(C)CC4)cc32)sc1C(N)=O)c1ccccc1C(F)(F)F [GSK461364 (12), GSK461364]
remaining activity at 2.5 µM (GSK3): 100%
% activity remaining at 2.5 μM, NEK1 (Pf NEK1): 100.0%
compound incubation required for a full killing effect (P. falciparum Dd2): 24 to 48 h
% activity remaining at 2.5 μM, ARK3 (PfARK3): 96.2%
remaining activity at 2.5 µM (PK6): 100%
remaining activity at 2.5 µM (PKB): 100%
EC50 (HepG2 cells; Homo sapiens, HepG2, 48 h): 1910 ± 210 nM
remaining activity at 2.5 µM (CDPK5): 100%
% activity remaining at 2.5 μM, PK9 (PK9): 100.0%
IC50 (human PLK1): 2.2 nM
% activity remaining at 2.5 μM, ARK1 (PfARK1): 99.5%
EC50 [1, 8]: 533 ± 78 nM
remaining activity at 2.5 µM (PK5): 100%
IC50 (Pf NEK3 (PF3D7_1201600)): 19 nM
remaining activity at 2.5 µM (Pf NEK3 (PF3D7_1201600)): 9.7%
remaining activity at 2.5 µM (CDPK2): 100%
EC50 [2, 9]: 1410 ± 77 nM
inhibitory effect in PfARK2 (PfARK2 [3]): neither compound displayed inhibitory effects

Nc1ccc(-c2ccc3ncc4ccc(=O)n(-c5cccc(C(F)(F)F)c5)c4c3c2)cn1 [torin2]
EC50 [1, 7]: 5.3 ± 0.3 nM

Cc1ncc(CCCN(C)C)cc1Nc1ncc2c(n1)-c1ccc(C(F)(F)F)cc1NC(=S)C2 [MLN0905 (13), MLN0905]
Selectivity Index (SI) = HepG2 EC50/Dd2 EC50 (HepG2 cells): 2.0
EC50 (HepG2 cells; [6]): 3940 ± 110 nM
IC50 (human PLK1): 2 nM
EC50 [1, 7]: 1820 ± 260 nM
